# From EP4434515A1, “CBD FOR OCULAR USE” (Laboratoire Laredo S.L., priority 2023, dated 2024)
# Like-named read-outs stand apart in the source and are kept apart here.
# Legend:
# CB1 knockout mice = conditions: high dose, soya oil/water emulsion; cited from earlier work
# DBA/2J mice [1] = assay: Spontaneous production of tear, Schirmer test; format: in vivo; conditions: treated vs untreated
# From the text: (§1) The research plan designed with the animal model is depicted in Fig. 3. It comprises three main phases: • An ageing phase, which includes an initial 3-month period of quarantine and acclimatisation and an additional 4.5-month period during which IOP (from month 3 until month 7,5), tear production (from month 5,5 until month 7,5) and tactile sensitivity (from month 4 to month 7,5) are monitored to obtain a baseline for such magnitudes. • A treatment phase, beginning when mice were 8 months old, where DBA/2J and CD-1 animals were randomly divided into two groups: treated and untreated. In this phase, treated mice receive CBD doses. The treatment phase comprises 3 periods: an acute period of 1 day, where, at time 0 of the phase, mice receive a CBD dose and are monitored for 24 hours; an initial chronic period of 18 days (days 2 to 19 of the treatment phase), where mice receive a daily CBD dose, and a second chronic period of other 18 days (days 21 to 37 of the treatment phase), where mice receive 2 daily CBD doses. […]
# (§2) Their analysis was carried out following the Von Schirmmer test, which consisted of an ophthalmologic examination used to measure tear production in the eyes by inserting a small special piece of absorbent paper in the corner of the eye to measure the amount of tears produced in a determined period of time. […] Then, the area of the wet test paper was measured (length x width).
# CD-1 mice [2] = assay: Spontaneous production of tear, Schirmer test; format: in vivo; conditions: treated vs untreated
# From the text: as §1, §2
# [3] = Body weight and welfare (actual severity of the procedure); format: in vivo, mice
# Method: In order to assess the actual severity of the treatment at the end of the procedure, the rates of mortality and morbidity were also recorded. Additionally, body weight measurements were […] during the study, as body weight is considered to be a sign of welfare.
# The values obtained are represented in Fig. 11. Additionally, the rate with regard to the value at month 7.8 (where CBD has not been administered yet) was calculated by one-way ANOVA followed by Dunnett's Multiple Comparisons test, a statistical test used to compare multiple treatment groups with a control group. Ia applicable when multiple treatment groups are present and it is desired it determine if any of them are statistically different from the control group, is often used when it is assumed that the variance is equal among all groups The results were over 10% decrease in body weight is normally considered as a severe effect of welfare, and such a level of decrease was not found in the present study for none of the mice.
# wildtype mice = conditions: high dose, soya oil/water emulsion; cited from earlier work
# DBA/2J mice [4] = assay: Intraocular pressure (IOP) by rebound tonometry in glaucoma model mice; format: in vivo
# Method: The study of the effects of topical ophthalmic CBD administration in micelles was carried out with outbred CD-1 mice and inbred DBA/2J mice. Male JAXTM DBA/2J mice homozygous for null mutations in Tyrplb and GpnmbR150X (-/-) were purchased from Charles River Laboratories (France). CD-1® IGS male mice were obtained from the animal facilities of Universidad Rey Juan Carlos, using 51 mice in total for the study . All animals were 4 weeks-old at the beginning of the study. They were maintained in a temperature (23 ± 1 °C) and humidity (50-55%) controlled room, under a 12 h light/dark cycle (lights off between 19:00 and 07.00 h). Animals had free access to standard laboratory rat chow (Harlan Laboratories Inc.) and tap water. Trained investigators blind to drug treatment conducted all the behavioural assays in groups of two. Experiments were performed between 8:00 and 11:00 a.m. in conscious animals. All animal procedures were designed and conducted in accordance with a protocol approved by the Ethical Committee of Universidad Rey Juan Carlos and by the Autonomous Region of Madrid (PROEX 187.3/21) and followed the guidelines for the Care and Use of Laboratory Animals of the European Union Directive (2010/63/EU) and Spanish regulations (Law 32/2007, RD 53/2013 and order ECC/566/2015). A total of 51 male mice were utilised in this study, as explained in section 2.2 below. The number of animals used and their suffering were minimised
# (§3) The research plan designed with the animal model is depicted in Fig. 3. It comprises three main phases: • An ageing phase, which includes an initial 3-month period of quarantine and acclimatisation and an additional 4.5-month period during which IOP (from month 3 until month 7,5), tear production (from month 5,5 until month 7,5) and tactile sensitivity (from month 4 to month 7,5) are monitored to obtain a baseline for such magnitudes. • A treatment phase, beginning when mice were 8 months old, where DBA/2J and CD-1 animals were randomly divided into two groups: treated and untreated. In this phase, treated mice receive CBD doses. The treatment phase comprises 3 periods: an acute period of 1 day, where, at time 0 of the phase, mice receive a CBD dose and are monitored for 24 hours; an initial chronic period of 18 days (days 2 to 19 of the treatment phase), where mice receive a daily CBD dose, and a second chronic period of other […] (days 21 to 37 of the treatment phase), where mice receive 2 daily CBD doses. From the end of the ageing phase to the end of the following phase, the wear-off phase, IOP, tear production and tactile sensitivity are monitored three times per week, following an alternative measuring system: on a same day, IOP was monitored in two groups, while tear production and tactile sensitivity were monitored in the other two groups, while, on the following measuring day, tear production and tactile sensitivity were monitored in the first two groups and IOP was monitored in the other two groups. • A wear-off phase, during which mice receive no treatment and IOP tear production and tactile sensitivity are monitored at 24, 48, 72 and 96 hours after the beginning of the phase, following the same alternative system of the treatment phase.
# CBD was administered as part of a micellar solution prepared as described in Example 1. In particular, in each dose, 5 µl of the micellar solution (with 5 mM CBD) was administered to one eye of each mice, while the other eye remained untreated or received only the vehicle, type II water. Treatment was always applied to the right eye. A different group of animals was treated during two weeks with the vehicle to ensure that it had no effect on IOP, corneal mechanical sensitivity or spontaneous production of tear.
# Measurements during the chronic treatment phase were always taken prior to daily administration. At each time point indicated in the chart of Fig. 3, rebound tonometry or von Frey test was performed in the same group of animals. […]
# DBA/2J mice [5] = assay: Corneal mechanical sensitivity, von Frey test; format: in vivo
# From the text: as §3, with “phase. […]” for “phase.”
# (§4) The study was carried out with the same DBA/2J animals used in the study of section 2.3, taking measures of tactile sensitivity in days different from those where IOP was measured, as scheduled in Fig. 3 and Table 3. […]
# (§5) Corneal mechanical sensitivity was measured following the von Frey test. […]
# CD-1 mice [6] = assay: Corneal mechanical sensitivity, von Frey test; format: in vivo; conditions: treated vs untreated
# From the text: as §3, with “phase. […]” for “phase.”
# as §4, §5
# [7] = CBD release from micelles through the HA hydrogel into simulated tear fluid, HPLC; format: physicochemical; conditions: after 12 h, simulated tear fluid as receiving medium
# Method: Next, an assay of CBD release from micelles through the HA hydrogel was carried out for 24 hours (the time that the gel will be in contact with the eye), using STF (simulated tear fluid: NaCl (0.68 g), NaHCO3 (0.22 g), CaCl2·2H2O (0.008 g), KCI (0.14 g), and type II water to a total volume of 100 ml, filtered through a 0.2 µm pore size filter) as the receiving medium in order to recapitulate as much as possible release in tears, and taking samples at 1, 3, 5 8, 12 and 24 h. High-Performance Liquid Chromatography (HPLC) was the analytical technique that allowed the separation, identification (by comparison with standard patterns) and quantification, using a reverse phase and mobile phase under certain conditions; a mixture of methanol and water (85:15). The other conditions are as follows; flow rate of 1.0 ml/min, injection volume 10 µl and wavelength at 220 nm. Under the conditions mentioned above, a good determination of the CBD can be carried out.
# [8] = topical, cited from earlier work
# [9] = Acute, hour 1 after single dose
# [10] = Chronic, day 12, one daily dose
# [11] = Chronic, day 16, one daily dose
# [12] = Chronic, day 21, two daily doses
# [13] = Chronic, day 26, two daily doses
# [14] = Chronic, day 30, two daily doses
# [15] = Chronic, day 35, two daily doses
# [16] = one week after finishing the treatment
compound,measurement,setting,value
"C=C(C)[C@@H]1CCC(C)=C[C@H]1c1c(O)cc(CCCCC)cc1O [CBD, cannabidiol]",effect on IOP,CB1 knockout mice,decreases IOP
same,spontaneous production of tear,DBA/2J mice [1],no significant effect
same,spontaneous production of tear,CD-1 mice [2],no significant effect
same,welfare,[3]; ocular topical administration,no severe affection of welfare
same,body weight decrease with regard to the weight before beginning the treatment,"[3]; phase of repeated CBD administration, DBA/2J and CD-1 mice, larger in CD-1",lower than 10%
same,effect on IOP,wildtype mice,increases IOP
same,Δ[contra-(treated)-contra-(non-treated)],DBA/2J mice [4]; [9],+95%
same,Δ[ipsi-(treated)-ipsi-(non-treated)],DBA/2J mice [4]; [9],+69%
same,"IOP ratio tn/t0, ipsi- (treated)","DBA/2J mice [4]; Acute, hour 1 after single dose, treated ipsilateral eye, t0 = month 3.0",180%
same,"IOP ratio tn/t0, contra- (treated)","DBA/2J mice [4]; Acute, hour 1 after single dose, untreated contralateral eye, t0 = month 3.0",192%
same,Δ[contra-(treated)-contra-(non-treated)],"DBA/2J mice [4]; Chronic, day 3, one daily dose",+80%
same,Δ[ipsi-(treated)-ipsi-(non-treated)],"DBA/2J mice [4]; Chronic, day 3, one daily dose",+35%
same,"IOP ratio tn/t0, contra- (treated)","DBA/2J mice [4]; Chronic, day 3, one daily dose, contralateral eye",131%
same,"IOP ratio tn/t0, ipsi- (treated)","DBA/2J mice [4]; Chronic, day 3, one daily dose, ipsilateral eye",130%
same,Δ[contra-(treated)-contra-(non-treated)],"DBA/2J mice [4]; Chronic, day 7, one daily dose",+49%
same,Δ[ipsi-(treated)-ipsi-(non-treated)],"DBA/2J mice [4]; Chronic, day 7, one daily dose",-35%
same,"IOP ratio tn/t0, contra- (treated)","DBA/2J mice [4]; Chronic, day 7, one daily dose, contralateral eye",119%
same,"IOP ratio tn/t0, ipsi- (treated)","DBA/2J mice [4]; Chronic, day 7, one daily dose, ipsilateral eye",101%
same,Δ[contra-(treated)-contra-(non-treated)],DBA/2J mice [4]; [10],+30%
same,Δ[ipsi-(treated)-ipsi-(non-treated)],DBA/2J mice [4]; [10],-89%
same,"IOP ratio tn/t0, contra- (treated)","DBA/2J mice [4]; Chronic, day 12, one daily dose, contralateral eye",128%
same,"IOP ratio tn/t0, ipsi- (treated)","DBA/2J mice [4]; Chronic, day 12, one daily dose, ipsilateral eye",104%
same,Δ[contra-(treated)-contra-(non-treated)],DBA/2J mice [4]; [11],-85%
same,Δ[ipsi-(treated)-ipsi-(non-treated)],DBA/2J mice [4]; [11],-174%
same,"IOP ratio tn/t0, contra- (treated)","DBA/2J mice [4]; Chronic, day 16, one daily dose, contralateral eye",117%
same,"IOP ratio tn/t0, ipsi- (treated)","DBA/2J mice [4]; Chronic, day 16, one daily dose, ipsilateral eye",77%
same,Δ[contra-(treated)-contra-(non-treated)],DBA/2J mice [4]; [12],-60%
same,Δ[ipsi-(treated)-ipsi-(non-treated)],DBA/2J mice [4]; [12],-81%
same,"IOP ratio tn/t0, contra- (treated)","DBA/2J mice [4]; Chronic, day 21, two daily doses, contralateral eye",100%
same,"IOP ratio tn/t0, ipsi- (treated)","DBA/2J mice [4]; Chronic, day 21, two daily doses, ipsilateral eye",90%
same,Δ[contra-(treated)-contra-(non-treated)],DBA/2J mice [4]; [13],-137%
same,Δ[ipsi-(treated)-ipsi-(non-treated)],DBA/2J mice [4]; [13],-79%
same,"IOP ratio tn/t0, contra- (treated)","DBA/2J mice [4]; Chronic, day 26, two daily doses, contralateral eye",97%
same,"IOP ratio tn/t0, ipsi- (treated)","DBA/2J mice [4]; Chronic, day 26, two daily doses, ipsilateral eye",95%
same,Δ[contra-(treated)-contra-(non-treated)],DBA/2J mice [4]; [14],-119%
same,Δ[ipsi-(treated)-ipsi-(non-treated)],DBA/2J mice [4]; [14],-159%
same,"IOP ratio tn/t0, contra- (treated)","DBA/2J mice [4]; Chronic, day 30, two daily doses, contralateral eye",113%
same,"IOP ratio tn/t0, ipsi- (treated)","DBA/2J mice [4]; Chronic, day 30, two daily doses, ipsilateral eye",68%
same,Δ[contra-(treated)-contra-(non-treated)],DBA/2J mice [4]; [15],-88%
same,Δ[ipsi-(treated)-ipsi-(non-treated)],DBA/2J mice [4]; [15],-82%
same,"IOP ratio tn/t0, contra- (treated)","DBA/2J mice [4]; Chronic, day 35, two daily doses, contralateral eye",96%
same,"IOP ratio tn/t0, ipsi- (treated)","DBA/2J mice [4]; Chronic, day 35, two daily doses, ipsilateral eye",81%
same,Δ[contra-(treated)-contra-(non-treated)],"DBA/2J mice [4]; Wear-off, day 38, no treatment",-44%
same,Δ[ipsi-(treated)-ipsi-(non-treated)],"DBA/2J mice [4]; Wear-off, day 38, no treatment",-78%
same,"IOP ratio tn/t0, contra- (treated)","DBA/2J mice [4]; Wear-off, day 38, no treatment, contralateral eye",64%
same,"IOP ratio tn/t0, ipsi- (treated)","DBA/2J mice [4]; Wear-off, day 38, no treatment, ipsilateral eye",81%
same,Δ[contra-(treated)-contra-(non-treated)],"DBA/2J mice [4]; Wear-off, day 40, no treatment",-34%
same,Δ[ipsi-(treated)-ipsi-(non-treated)],"DBA/2J mice [4]; Wear-off, day 40, no treatment",-70%
same,"IOP ratio tn/t0, contra- (treated)","DBA/2J mice [4]; Wear-off, day 40, no treatment, contralateral eye",171%
same,"IOP ratio tn/t0, ipsi- (treated)","DBA/2J mice [4]; Wear-off, day 40, no treatment, ipsilateral eye",165%
same,IOP relative to the untreated group,DBA/2J mice [4]; acute administration (one dose),increased IOP
same,IOP difference relative to the untreated group,DBA/2J mice [4]; after giving two doses (daily),-80%
same,IOP compared with the untreated group,DBA/2J mice [4]; [16],still reduced
same,"IOP relative to the untreated group, late phase","DBA/2J mice [4]; repeated administration, 7 days on",decreased values
same,corneal mechanical sensitivity relative to the untreated group,DBA/2J mice [5]; acute administration,decreased mechanical sensitivity
same,corneal mechanical sensitivity,DBA/2J mice [5]; [16],still reduced
same,corneal mechanical sensitivity,CD-1 mice [6],no significant effect
same,CBD release,[7],higher than 90%
same,effect on IOP,[8]; delivered in mineral oil,IOP-lowering effect
same,effect on IOP,[8]; delivered in sesame oil,absent
